Source: ChEMBL document CHEMBL5584283, “Evaluation of Antibacterial Functionalized Dihydropyrimidine Photoaffinity Probes Toward Mechanism of Action Studies” (ACS Med Chem Lett, 2024)
≈ marks a conversion by molar mass, not a printed value.

The compounds below were run on Staphylococcus aureus (assay: Antibacterial activity against Staphylococcus aureus ATCC 12600 assessed as reduction in bacterial growth measured after 18 hrs by two-fold serial dilution method).
Assay type: functional
For `CCOC(=O)C1=C(c2ccccc2)NC(N)=NC1c1cccc(C)c1` (configuration not stated), the MIC was 64 µg/mL (≈ 191 µM).
For `CCOC(=O)C1=C(c2ccccc2)NC(N)=NC1c1c(C)cccc1C` (configuration not stated), the MIC was 32 µg/mL (≈ 91.6 µM).
For `COc1cc(Cc2cnc(N)nc2N)cc(OC)c1OC` [TRIMETHOPRIM], the MIC was 32 µg/mL (≈ 110 µM).
For `CCOC(=O)C1=C(c2ccccc2)NC(N)=NC1c1ccccc1C` (configuration not stated), the MIC was 64 µg/mL (≈ 191 µM).
`CCOC(=O)C1=C(c2ccccc2)NC(N)=NC1c1ccc(N(C)C)cc1` (configuration not stated) was tested, and the MIC was 64 µg/mL (≈ 176 µM).
`CCOC(=O)C1=C(CC)NC(N)=NC1c1ccc(-c2ccccc2)cc1` (configuration not stated) was tested, and the MIC was 4 µg/mL (≈ 11.4 µM).
GENTAMICIN showed an MIC of 4 µg/mL.
Work on `CCOC(=O)C1=C(c2ccccc2)NC(N)=NC1c1ccc(F)cc1` (configuration not stated) yielded an MIC of 64 µg/mL (≈ 189 µM).
With `CCOC(=O)C1=C(c2ccccc2)NC(N)=NC1c1ccc(OC)cc1` (configuration not stated) the MIC was 64 µg/mL (≈ 182 µM).
Compound `CCOC(=O)C1=C(c2ccccc2)NC(N)=NC1c1cccc(F)c1` (configuration not stated) has an MIC of 64 µg/mL (≈ 189 µM).
Work on `CCOC(=O)C1=C(c2ccccc2)NC(N)=NC1c1ccc(C)cc1C` (configuration not stated) yielded an MIC of 32 µg/mL (≈ 91.6 µM).

Each compound was assayed on Staphylococcus aureus (assay: Antibacterial activity against Staphylococcus aureus ATCC 12600 assessed as partial growth inhibition at high concentration measured after 18 hrs by two-fold serial dilution method relative to control).
Assay type: functional
For `CCOC(=O)C1=C(c2ccccc2)NC(N)=NC1c1cccc(C)c1` (configuration not stated), the “growth inhibition (GI)” value was over 95%.
For `CCOC(=O)C1=C(c2ccccc2)NC(N)=NC1c1c(C)cccc1C` (configuration not stated), the “growth inhibition (GI)” value was over 95%.
For `COc1cc(Cc2cnc(N)nc2N)cc(OC)c1OC` [TRIMETHOPRIM], the “growth inhibition (GI)” value was over 95%.
In the case of `CCOC(=O)C1=C(c2ccccc2)NC(N)=NC1c1ccccc1C` (configuration not stated), the “growth inhibition (GI)” value is reported as over 95%.
For `CCOC(=O)C1=C(c2ccccc2)NC(N)=NC1c1ccc(C(C)C)cc1` (configuration not stated), the “growth inhibition (GI)” value was over 95%.
`CCOC(=O)C1=C(c2ccccc2)NC(N)=NC1c1ccc(N(C)C)cc1` (configuration not stated) was tested, and the “growth inhibition (GI)” value was over 95%.
With `CCOC(=O)C1=C(c2ccccc2)NC(N)=NC1c1cc(Cl)cc(Cl)c1` (configuration not stated) the “growth inhibition (GI)” value was over 95%.
With `CCOC(=O)C1=C(CC)NC(N)=NC1c1ccc(CC(C)C)cc1` (configuration not stated) the “growth inhibition (GI)” value was over 95%.
In the case of `CCOC(=O)C1=C(CC)NC(N)=NC1c1ccc(-c2ccccc2)cc1` (configuration not stated), the “growth inhibition (GI)” value is reported as over 95%.
In the case of `CCOC(=O)C1=C(c2ccccc2)NC(N)=NC1c1ccc(F)cc1` (configuration not stated), the “growth inhibition (GI)” value is reported as over 95%.
In the case of `CCOC(=O)C1=C(c2ccccc2)NC(N)=NC1c1ccc(OC)cc1` (configuration not stated), the “growth inhibition (GI)” value is reported as over 95%.
`CCOC(=O)C1=C(c2ccccc2)NC(N)=NC1c1cccc(F)c1` (configuration not stated) was tested, and the “growth inhibition (GI)” value was over 95%.
In the case of `CCOC(=O)C1=C(c2ccccc2)NC(N)=NC1c1ccc(C)c(C)c1` (configuration not stated), the “growth inhibition (GI)” value is reported as over 95%.
For `CCOC(=O)C1=C(c2ccccc2)NC(N)=NC1c1ccc(C)cc1C` (configuration not stated), the “growth inhibition (GI)” value was over 95%.

What follows are compounds tested on Staphylococcus aureus (assay: Antibacterial activity against Staphylococcus aureus ATCC 33591 assessed as reduction in bacterial growth measured after 18 hrs by two-fold serial dilution method).
Assay type: functional
In the case of `CCOC(=O)C1=C(c2ccccc2)NC(N)=NC1c1cccc(C)c1` (configuration not stated), the MIC is reported as 64 µg/mL (≈ 191 µM).
For `COc1cc(Cc2cnc(N)nc2N)cc(OC)c1OC` [TRIMETHOPRIM], the MIC was 8 µg/mL (≈ 27.6 µM).
Compound `CCOC(=O)C1=C(c2ccccc2)NC(N)=NC1c1ccccc1C` (configuration not stated) has an MIC of 64 µg/mL (≈ 191 µM).
In the case of `CCOC(=O)C1=C(c2ccccc2)NC(N)=NC1c1ccc(N(C)C)cc1` (configuration not stated), the MIC is reported as 64 µg/mL (≈ 176 µM).
GENTAMICIN gave an MIC of 4 µg/mL.
`CCOC(=O)C1=C(c2ccccc2)NC(N)=NC1c1ccc(F)cc1` (configuration not stated) was tested, and the MIC was 64 µg/mL (≈ 189 µM).
`CCOC(=O)C1=C(c2ccccc2)NC(N)=NC1c1cccc(F)c1` (configuration not stated) was tested, and the MIC was 64 µg/mL (≈ 189 µM).
`CCOC(=O)C1=C(c2ccccc2)NC(N)=NC1c1ccc(C)cc1C` (configuration not stated) showed an MIC of 32 µg/mL (≈ 91.6 µM).

Each compound was assayed on Staphylococcus aureus (assay: Antibacterial activity against Staphylococcus aureus ATCC 33591 assessed as partial growth inhibition at high concentration measured after 18 hrs by two-fold serial dilution method relative to control).
Assay type: functional
For `CCOC(=O)C1=C(c2ccccc2)NC(N)=NC1c1cccc(C)c1` (configuration not stated), the “growth inhibition (GI)” value was over 95%.
With `COc1cc(Cc2cnc(N)nc2N)cc(OC)c1OC` [TRIMETHOPRIM] the “growth inhibition (GI)” value was over 95%.
`CCOC(=O)C1=C(c2ccccc2)NC(N)=NC1c1ccccc1C` (configuration not stated) was tested, and the “growth inhibition (GI)” value was over 95%.
For `CCOC(=O)C1=C(c2ccccc2)NC(N)=NC1c1ccc(C(C)C)cc1` (configuration not stated), the “growth inhibition (GI)” value was over 95%.
For `CCOC(=O)C1=C(c2ccccc2)NC(N)=NC1c1ccc(N(C)C)cc1` (configuration not stated), the “growth inhibition (GI)” value was over 95%.
`CCOC(=O)C1=C(c2ccccc2)NC(N)=NC1c1cc(Cl)cc(Cl)c1` (configuration not stated) was tested, and the “growth inhibition (GI)” value was over 95%.
With `CCOC(=O)C1=C(c2ccccc2)NC(N)=NC1c1cccc([N+](=O)[O-])c1` (configuration not stated) the “growth inhibition (GI)” value was over 95%.
For `CCOC(=O)C1=C(c2ccccc2)NC(N)=NC1c1ccc(F)cc1` (configuration not stated), the “growth inhibition (GI)” value was over 95%.
In the case of `CCOC(=O)C1=C(c2ccccc2)NC(N)=NC1c1cccc(F)c1` (configuration not stated), the “growth inhibition (GI)” value is reported as over 95%.
For `CCOC(=O)C1=C(c2ccccc2)NC(N)=NC1c1ccc(CC(C)C)cc1` (configuration not stated), the “growth inhibition (GI)” value was over 95%.
In the case of `CCOC(=O)C1=C(c2ccccc2)NC(N)=NC1c1ccc(C)c(C)c1` (configuration not stated), the “growth inhibition (GI)” value is reported as over 95%.
For `CCOC(=O)C1=C(c2ccccc2)NC(N)=NC1c1ccc(C)cc1C` (configuration not stated), the “growth inhibition (GI)” value was over 95%.

These compounds were tested on Staphylococcus aureus (assay: Antibacterial activity against Staphylococcus aureus ATCC 43300 assessed as reduction in bacterial growth measured after 18 hrs by two-fold serial dilution method).
Assay type: functional
`CCOC(=O)C1=C(c2ccccc2)NC(N)=NC1c1cccc(C)c1` (configuration not stated) was tested, and the MIC was 64 µg/mL (≈ 191 µM).
`CCOC(=O)C1=C(c2ccccc2)NC(N)=NC1c1c(C)cccc1C` (configuration not stated) was tested, and the MIC was 32 µg/mL (≈ 91.6 µM).
For `COc1cc(Cc2cnc(N)nc2N)cc(OC)c1OC` [TRIMETHOPRIM], the MIC was 8 µg/mL (≈ 27.6 µM).
For `CCOC(=O)C1=C(c2ccccc2)NC(N)=NC1c1ccccc1C` (configuration not stated), the MIC was 64 µg/mL (≈ 191 µM).
Compound `CCOC(=O)C1=C(c2ccccc2)NC(N)=NC1c1ccc(N(C)C)cc1` (configuration not stated) has an MIC of 64 µg/mL (≈ 176 µM).
Compound `CCOC(=O)C1=C(CC)NC(N)=NC1c1ccc(-c2ccccc2)cc1` (configuration not stated) has an MIC of 4 µg/mL (≈ 11.4 µM).
GENTAMICIN gave an MIC of 128 µg/mL.
In the case of `CCOC(=O)C1=C(c2ccccc2)NC(N)=NC1c1ccc(F)cc1` (configuration not stated), the MIC is reported as 64 µg/mL (≈ 189 µM).
In the case of `CCOC(=O)C1=C(c2ccccc2)NC(N)=NC1c1cccc(F)c1` (configuration not stated), the MIC is reported as 64 µg/mL (≈ 189 µM).
`CCOC(=O)C1=C(c2ccccc2)NC(N)=NC1c1ccc(C)cc1C` (configuration not stated) showed an MIC of 32 µg/mL (≈ 91.6 µM).

These compounds were tested on Staphylococcus aureus (assay: Antibacterial activity against Staphylococcus aureus ATCC 43300 assessed as partial growth inhibition at high concentration measured after 18 hrs by two-fold serial dilution method relative to control).
Assay type: functional
With `CCOC(=O)C1=C(c2ccccc2)NC(N)=NC1c1cccc(C)c1` (configuration not stated) the “growth inhibition (GI)” value was over 95%.
For `CCOC(=O)C1=C(c2ccccc2)NC(N)=NC1c1c(C)cccc1C` (configuration not stated), the “growth inhibition (GI)” value was over 95%.
For `COc1cc(Cc2cnc(N)nc2N)cc(OC)c1OC` [TRIMETHOPRIM], the “growth inhibition (GI)” value was over 95%.
In the case of `CCOC(=O)C1=C(c2ccccc2)NC(N)=NC1c1ccccc1C` (configuration not stated), the “growth inhibition (GI)” value is reported as over 95%.
With `CCOC(=O)C1=C(c2ccccc2)NC(N)=NC1c1ccc(C(C)C)cc1` (configuration not stated) the “growth inhibition (GI)” value was over 95%.
In the case of `CCOC(=O)C1=C(c2ccccc2)NC(N)=NC1c1ccc(N(C)C)cc1` (configuration not stated), the “growth inhibition (GI)” value is reported as over 95%.
`CCOC(=O)C1=C(c2ccccc2)NC(N)=NC1c1cc(Cl)cc(Cl)c1` (configuration not stated) was tested, and the “growth inhibition (GI)” value was over 95%.
In the case of `CCOC(=O)C1=C(CC)NC(N)=NC1c1ccc(CC(C)C)cc1` (configuration not stated), the “growth inhibition (GI)” value is reported as over 95%.
`CCOC(=O)C1=C(CC)NC(N)=NC1c1ccc(-c2ccccc2)cc1` (configuration not stated) was tested, and the “growth inhibition (GI)” value was over 95%.
With `CCOC(=O)C1=C(c2ccccc2)NC(N)=NC1c1cccc([N+](=O)[O-])c1` (configuration not stated) the “growth inhibition (GI)” value was over 95%.
For `CCOC(=O)C1=C(c2ccccc2)NC(N)=NC1c1ccc(F)cc1` (configuration not stated), the “growth inhibition (GI)” value was over 95%.
`CCOC(=O)C1=C(c2ccccc2)NC(N)=NC1c1cccc(F)c1` (configuration not stated) was tested, and the “growth inhibition (GI)” value was over 95%.
With `CCOC(=O)C1=C(c2ccccc2)NC(N)=NC1c1ccc(C)cc1C` (configuration not stated) the “growth inhibition (GI)” value was over 95%.

These compounds were tested on Erythrocyte (assay: Hemolytic activity in sheep RBC assessed as hemolysis incubated for 1 hr by absorbance based analysis).
Assay type: toxicity, cell-based, Ovis aries
For `CCOC(=O)C1=C(c2cccc(F)c2)NC(N)=NC1c1cc(Cl)cc(Cl)c1` (configuration not stated), the HC20 was over 64 µg/mL.
`CCOC(=O)C1=C(c2ccccc2)NC(N)=NC1c1ccccc1OC` (configuration not stated) showed an HC20 of over 64 µg/mL.
For `CCOC(=O)C1=C(c2ccccc2)NC(N)=NC1c1ccc(C(C)C)cc1` (configuration not stated), the HC20 was over 64 µg/mL.
`CCOC(=O)C1=C(c2ccccc2)NC(N)=NC1c1cc(Cl)cc(Cl)c1` (configuration not stated) gave an HC20 of over 64 µg/mL.
`CCOC(=O)C1=C(CC)NC(N)=NC1c1ccc(CC(C)C)cc1` (configuration not stated) was tested, and the HC20 was over 64 µg/mL.
In the case of `CCOC(=O)C1=C(c2ccccc2)NC(N)=NC1c1ccc(OC)cc1` (configuration not stated), the HC20 is reported as over 64 µg/mL.
`CCOC(=O)C1=C(c2ccccc2)NC(N)=NC1c1ccccc1` (configuration not stated) was tested, and the HC20 was over 64 µg/mL.
`CCOC(=O)C1=C(c2cccc(C(F)(F)F)c2)NC(N)=NC1c1cc(Cl)cc(Cl)c1` (configuration not stated) was tested, and the HC20 was over 64 µg/mL.
`CCOC(=O)C1=C(c2ccccc2)NC(N)=NC1c1ccc(-c2ccccc2)cc1` (configuration not stated) showed an HC20 of over 64 µg/mL.
With `CCOC(=O)C1=C(c2ccccc2)NC(N)=NC1c1ccc(CC(C)C)cc1` (configuration not stated) the HC20 was over 64 µg/mL.
`CCOC(=O)C1=C(c2cccc(C)c2)NC(N)=NC1c1cc(Cl)cc(Cl)c1` (configuration not stated) gave an HC20 of over 64 µg/mL.
`CCOC(=O)C1=C(c2cccc(C(F)(F)F)c2)NC(N)=NC1c1ccc(CC(C)C)cc1` (configuration not stated) gave an HC20 of 64 µg/mL.
Work on `CCOC(=O)C1=C(c2cccc(F)c2)NC(N)=NC1c1ccc(CC(C)C)cc1` (configuration not stated) yielded an HC20 of over 64 µg/mL.
Work on `CCOC(=O)C1=C(c2ccccc2)NC(N)=NC1c1cccc(Cl)c1` (configuration not stated) yielded an HC20 of over 64 µg/mL.
